Reference: US11229707B2, “Promoting immune responses” (National Institute of Biological Sciences, Beijing, priority 2018, dated 2022)
Read-outs that look alike come from different tables or passages of the source.

What was measured:
[1] = tested on: TIFA; test: TIFA phosphorylation in 293T cells stably expressing EGFP-TIFA, anti-pT9-TIFA immunoblot; format: cell-based; conditions: 5 μM for 5 hours
Description: FIG. 1B. […] 293T cells stably expressing EGFP-TIFA were treated with ADP-heptose analogs (5 μM) for 5 hours, and analyzed by anti-pT9-TIFA immunoblot.

[2] = tested on: NF-κB in 293T cells; test: NF-κB activation in 293T cells, luciferase reporter activity; format: cell-based
[3] = molecular target: alpha-kinase 1 (ALPK1) (Homo sapiens, UniProt Q96QP1); test: ALPK1 activation (kinase domain phosphorylation of TIFA); format: biochemical
[4] = tested on: THP-1 and 293T cells; test: Host cytosol entry, NF-kB activation and cytokine induction in THP-1 and 293T cells; conditions: for cytokines induction (such as interleukin-8): THP-1 and 293T cells, compound added on its own
[5] = tested on: ovalbumin (OVA)-specific IgG; test: Adjuvant activity in vivo: OVA immunization, serum OVA-specific IgG by ELISA; conditions: C57BL/6N mice, intramuscular, 10 μg OVA mixed with 0.5 mg/mouse; after 21 days
Description: FIG. 1C. […] C57BL/6N mice (8 mice per group) were immunized intramuscularly with 10 μg OVA mixed with PBS, alum (2 mg/mouse), or ADP-heptose (0.5 mg/mouse). After 21 days, serum titers of OVA-specific IgG were measured by ELISA.

[6] = molecular target: ALPK1 N-terminal domain (NTD) (Homo sapiens, UniProt Q96QP1); test: Direct binding to ALPK1 N-terminal domain
[7] = tested on: MC38 colorectal adenocarcinoma cells; test: MC38 tumor growth, posttumor treatment with checkpoint blockade; format: in vivo, C57BL/6N mice; conditions: 0.5 mg/mouse intratumor combined with anti-PD-1 antibody 40 ug/mouse intraperitoneal, day 13-28
Description: FIG. 1F. […] C57BL/6N mice (n=6 mice per group) were injected subcutaneously with 2×10^5 MC38 colorectal adenocarcinoma cells on day 0. ADP-heptose (0.5 mg/mouse, intratumor injection) and anti-PD-1 antibody (40 ug/mouse, intraperitoneal injection) was administered on day 13, 16, 19, 22, 25, and 28 after tumor inoculation.

[8] = tested on: B16-OVA melanoma cells; test: B16-OVA tumor growth, posttumor intratumor treatment; format: in vivo, C57BL/6N mice; conditions: 0.5 mg/mouse intratumor injection on day 8, 11, 14, 17
Description: FIG. 1D and FIG. 1E. […] C57BL/6N mice (n=6 mice per group) were injected subcutaneously with 2×10^5 B16-OVA melanoma cells on day 0. ADP-heptose (0.5 mg/mouse) was administered on day 8, 11, 14, and 17 after tumor inoculation by intratumor injection. Tumor volume (D) and tumor weight (E).

[9] = tested on: innate immune responses in mice; test: Mouse dorsal air pouch model of acute inflammation (neutrophil recruitment, multiplex immunoassay for 36 cytokines); format: in vivo; conditions: for proinflammatory cytokines and chemokines in air pouches (IL-6, TNFα, IP-10, MCP-1/3, IFNγ, GM-CSF, MIP-1α and β, RANTES): air-pouch washes, compared with saline control; for neutrophil recruitment into the air pouch: injection into air pouch; for level of GRO-α/KC/CXCL1, IP-10 and MCP-1 in the sera: sera of injected mice
Text: To investigate whether ADP-Hep alone could stimulate innate immune responses in vivo, a mouse dorsal air pouch model established to assess acute inflammation was employed (Gaudet et al. Science 348, 1251-1255 (2015).
We then performed a multiplex immunoassay for 36 cytokines in both the air-pouch washes and the sera of injected mice. […] Thus, ADP-Hep but not HBP alone can potently activate innate immune responses in mice.
To confirm that 1-ADP-heptoses and 1-ADP-heptose-7-phosphates can stimulate innate immune responses in vivo, a mouse dorsal air pouch model established to assess acute inflammation was employed (Gaudet, et al. Science 348, 1251-1255 (2015).
Injection of 1-ADP-heptoses and 1-ADP-heptose-7-phosphates into the air pouch induces neutrophil recruitment into the pouch. […] 1-ADP-heptoses and 1-ADP-heptose-7-phosphates also increase the level of keratinocyte-derived chemokine (GRO-a/KC/CXCL1), IP-10 and MCP-1 in the sera.

[10] = tested on: THP-1 and 293T cells

alpha-kinase 1 (ALPK1), sequence (Q96QP1 whole entry, the tested form may be a part): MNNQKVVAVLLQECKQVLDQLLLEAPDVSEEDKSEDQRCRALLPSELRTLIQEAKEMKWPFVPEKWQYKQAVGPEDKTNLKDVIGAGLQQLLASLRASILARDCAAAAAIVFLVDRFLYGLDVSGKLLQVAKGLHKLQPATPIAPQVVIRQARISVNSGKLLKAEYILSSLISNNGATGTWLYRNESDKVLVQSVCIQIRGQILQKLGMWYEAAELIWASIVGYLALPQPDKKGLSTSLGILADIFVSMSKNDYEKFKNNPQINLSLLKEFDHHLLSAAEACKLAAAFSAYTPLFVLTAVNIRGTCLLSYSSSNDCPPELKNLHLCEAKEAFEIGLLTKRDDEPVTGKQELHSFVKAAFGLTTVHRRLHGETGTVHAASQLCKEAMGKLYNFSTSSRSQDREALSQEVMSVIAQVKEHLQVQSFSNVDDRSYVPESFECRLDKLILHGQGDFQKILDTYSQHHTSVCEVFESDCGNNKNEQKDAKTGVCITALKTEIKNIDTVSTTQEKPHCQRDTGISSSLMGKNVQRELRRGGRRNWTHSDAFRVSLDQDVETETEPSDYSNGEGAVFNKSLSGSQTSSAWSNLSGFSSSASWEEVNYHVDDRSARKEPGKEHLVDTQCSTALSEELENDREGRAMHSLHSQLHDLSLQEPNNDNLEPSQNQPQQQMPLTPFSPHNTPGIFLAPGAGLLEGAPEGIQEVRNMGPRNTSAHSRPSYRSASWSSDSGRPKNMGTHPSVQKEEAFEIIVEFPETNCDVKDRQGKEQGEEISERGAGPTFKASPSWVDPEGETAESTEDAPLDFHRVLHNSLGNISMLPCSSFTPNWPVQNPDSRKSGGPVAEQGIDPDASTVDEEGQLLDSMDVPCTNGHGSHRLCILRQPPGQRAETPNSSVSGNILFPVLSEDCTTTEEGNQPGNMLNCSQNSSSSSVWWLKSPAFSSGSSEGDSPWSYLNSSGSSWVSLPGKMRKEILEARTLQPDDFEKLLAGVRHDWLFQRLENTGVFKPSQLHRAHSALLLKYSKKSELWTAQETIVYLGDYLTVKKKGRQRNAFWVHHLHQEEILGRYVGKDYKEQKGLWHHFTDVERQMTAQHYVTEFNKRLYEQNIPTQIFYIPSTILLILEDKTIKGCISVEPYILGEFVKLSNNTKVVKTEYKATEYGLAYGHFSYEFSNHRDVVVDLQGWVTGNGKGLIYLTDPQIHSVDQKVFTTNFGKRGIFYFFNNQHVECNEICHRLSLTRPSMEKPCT
ALPK1 N-terminal domain (NTD), sequence (Q96QP1 1-473 limits assumed): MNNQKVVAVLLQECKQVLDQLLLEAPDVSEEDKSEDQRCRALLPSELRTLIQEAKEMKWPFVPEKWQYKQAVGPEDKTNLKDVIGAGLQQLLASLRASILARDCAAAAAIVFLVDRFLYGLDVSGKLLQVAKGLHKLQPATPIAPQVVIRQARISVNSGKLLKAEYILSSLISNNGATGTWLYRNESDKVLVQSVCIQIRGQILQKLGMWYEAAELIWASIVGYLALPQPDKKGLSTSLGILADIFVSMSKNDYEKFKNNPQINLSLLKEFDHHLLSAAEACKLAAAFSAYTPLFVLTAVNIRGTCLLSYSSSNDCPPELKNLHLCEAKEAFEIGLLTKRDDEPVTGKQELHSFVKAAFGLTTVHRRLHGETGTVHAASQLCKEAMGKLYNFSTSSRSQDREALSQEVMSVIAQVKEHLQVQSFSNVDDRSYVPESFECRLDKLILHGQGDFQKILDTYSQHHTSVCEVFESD

In the case of Nc1nc2c(ncn2C2CC(O)C(COP(=O)(O)OP(=O)(O)OC3OC(C(O)CO)C(O)C(O)C3O)O2)c(=O)[nH]1 (stereo not shown) [dGDP-heptose], the “TIFA phosphorylation (anti-pT9-TIFA immunoblot)” value (“TIFA phosphorylation” below) [1] is reported as “induce TIFA phosphorylation” and the “NF-κB activation (luciferase reporter activity)” value [2] is reported as “activated NF-κB in 293T cells in a dose-dependent manner”.
In the case of Nc1ncnc2c1ncn2C1CC(O)C(COP(=O)(O)OP(=O)(O)OC2OC(C(O)CO)C(O)C(O)C2O)O1 (stereo not shown) [dADP-heptose], the “TIFA phosphorylation” value [1] is reported as “induce TIFA phosphorylation” and the “NF-κB activation (luciferase reporter activity)” value [2] is reported as “activated NF-κB in 293T cells in a dose-dependent manner”.
With Nc1ncnc2c1ncn2C1OC(COP(=O)(O)OP(=O)(O)OC2OC(C(O)COP(=O)(O)O)C(O)C(O)C2O)C(O)C1O (stereo not shown) [ADP-Heptose 7-P] the ALPK1 activation [3] was “ALPK1 activation-competent”.
For Nc1ccn(C2CC(O)C(COP(=O)(O)OP(=O)(O)OC3OC(C(O)CO)C(O)C(O)C3O)O2)c(=O)n1 (stereo not shown) [dCDP-heptose], the “TIFA phosphorylation” value [1] was “induce TIFA phosphorylation” and the “NF-κB activation (luciferase reporter activity)” value [2] was “activated NF-κB in 293T cells in a dose-dependent manner”.
Nc1ncnc2c1ncn2[C@@H]1O[C@H](COP(=O)(O)OP(=O)(O)O[C@@H]2O[C@H]([C@H](O)CO)[C@@H](O)[C@H](O)[C@@H]2O)[C@@H](O)[C@H]1O [ADP-heptose, 1-ADP-β-D-manno-Heptose] was tested, and the “cytokines induction (such as interleukin-8)” value [4] was “cytokines induction”, the “entry into host cytosol on its own” value ([4]; host cells) was “could enter host cytosol on its own” and the “TIFA phosphorylation” value [1] was “induced TIFA phosphorylation”. For the same compound, the “serum ovalbumin (OVA)-specific IgG production (adjuvant activity)” value [5] was “exhibited adjuvant activity in vivo to elevate the serum ovalbumin (OVA)-specific IgG production”, the “direct binding to ALPK1 N-terminal domain” value [6] was “directly binds” and the MC38 tumor growth [7] was “Inhibition of MC38 tumor growth”. The “B16-OVA tumor growth (tumor volume, tumor weight)” value [8] was “Inhibition of B16-OVA tumor growth”, the “NF-κB activation (luciferase reporter activity)” value [2] was “activated NF-κB in 293T cells in a dose-dependent manner” and the ALPK1 activation [3] was “stimulates the NTD-bound C-terminal kinase domain to phosphorylate TIFA and induce its oligomerization”. The “inflammatory responses in mice after injection” value ([9]; mice, Alpk1-dependent) was “induces robust inflammatory responses in mice”.
O=P(O)(O)OC[C@@H](O)[C@H]1O[C@@H](OP(=O)(O)O)[C@@H](O)[C@@H](O)[C@@H]1O [HBP, D-glycero-β-D-manno Heptose 1,7-bisphosphate, reference compound] was tested, and the “cytokines induction (such as interleukin-8)” value [4] was “not”, the NF-κB activation ([4]; transfected into host cells) was “NF-κB activation observed” and the “entry into host cytosol on its own” value [10] was “cell-impermeable”. The “proinflammatory cytokines and chemokines in air pouches (IL-6, TNFα, IP-10, MCP-1/3, IFNγ, GM-CSF, MIP-1α and β, RANTES)” value [9] was “did not affect local and systemic productions”, the “neutrophil recruitment into the air pouch” value [9] was “failed to increase the number of air-pouch neutrophils” and the “level of GRO-α/KC/CXCL1, IP-10 and MCP-1 in the sera” value [9] was “did not affect local and systemic productions”.
With Nc1ccn(C2OC(COP(=O)(O)OP(=O)(O)OC3OC(C(O)CO)C(O)C(O)C3O)C(O)C2O)c(=O)n1 (stereo not shown) [CDP-heptose] the “TIFA phosphorylation” value [1] was “induce TIFA phosphorylation” and the “NF-κB activation (luciferase reporter activity)” value [2] was “activated NF-κB in 293T cells in a dose-dependent manner”.
Cc1cn(C2CC(O)C(COP(=O)(O)OP(=O)(O)OC3OC(C(O)CO)C(O)C(O)C3O)O2)c(=O)[nH]c1=O (stereo not shown) [dTDP-heptose] was tested, and the “TIFA phosphorylation” value [1] was “induce TIFA phosphorylation” and the “NF-κB activation (luciferase reporter activity)” value [2] was “activated NF-κB in 293T cells in a dose-dependent manner”.
In the case of Nc1ncnc2c1ncn2[C@@H]1O[C@H](COP(=O)(O)OP(=O)(O)O[C@@H]2O[C@H]([C@@H](O)CO)[C@@H](O)[C@H](O)[C@@H]2O)[C@@H](O)[C@H]1O [ADP-LD-Hep], the “proinflammatory cytokines and chemokines in air pouches (IL-6, TNFα, IP-10, MCP-1/3, IFNγ, GM-CSF, MIP-1α and β, RANTES)” value [9] is reported as “highly elevated”, the “neutrophil recruitment into the air pouch” value [9] is reported as “induced massive neutrophil recruitment into the pouch” and the “level of GRO-α/KC/CXCL1, IP-10 and MCP-1 in the sera” value [9] is reported as “increased the level”.
With Nc1nc2c(ncn2[C@@H]2O[C@H](COP(=O)(O)OP(=O)(O)O[C@H]3O[C@H]([C@H](O)CO)[C@@H](O)[C@H](O)[C@@H]3O)[C@@H](O)[C@H]2O)c(=O)[nH]1 [GDP-heptose] the “TIFA phosphorylation” value [1] was “induce TIFA phosphorylation” and the “NF-κB activation (luciferase reporter activity)” value [2] was “activated NF-κB in 293T cells in a dose-dependent manner”.
For O=c1ccn(C2OC(COP(=O)(O)OP(=O)(O)OC3OC(C(O)CO)C(O)C(O)C3O)C(O)C2O)c(=O)[nH]1 (stereo not shown) [UDP-heptose], the “TIFA phosphorylation” value [1] was “induce TIFA phosphorylation” and the “NF-κB activation (luciferase reporter activity)” value [2] was “activated NF-κB in 293T cells in a dose-dependent manner”.
